Test results from the NIST ThermoML archive (doi:10.1021/acs.jced.8b01146).
“And” between values parts separate entries of the source, which are not always exact repeats. Equal entries are not always repeated. Numbers after ± are expanded uncertainties.

Experiments:
[1] = xn = mol fraction of the nth substance listed; conditions: 100 kPa, Liquid, Vibrating tube method
[2] = excess molar enthalpy (molar enthalpy of mixing); xn = mol fraction of the nth substance listed; conditions: 100 kPa, Liquid, Calvet calorimetry

CC1CCC(=O)O1 (stereo unspecified) [γ-valerolactone] + O
Conditions	excess molar enthalpy, [2]	mass density, [1]
288.15 K, x1 = 0.000948	-0.00488 ± 0.00081 kJ/mol	999.61 ± 0.034 kg/m3
288.15 K, x1 = 0.001895	-0.00962 ± 0.00085 kJ/mol	1000.12 ± 0.035 kg/m3
288.15 K, x1 = 0.00284	-0.0143 ± 0.0009 kJ/mol	1000.62 ± 0.037 kg/m3
288.15 K, x1 = 0.003783	-0.0187 ± 0.00094 kJ/mol	1001.12 ± 0.039 kg/m3
288.15 K, x1 = 0.004724	-0.0231 ± 0.00098 kJ/mol	1001.62 ± 0.042 kg/m3
288.15 K, x1 = 0.005663	-0.0273 ± 0.001 kJ/mol	1002.11 ± 0.045 kg/m3
298.15 K, x1 = 0.000947	-0.00365 ± 0.0008 kJ/mol	997.5 ± 0.035 kg/m3
298.15 K, x1 = 0.001893	-0.00717 kJ/mol and -0.00715 kJ/mol	997.952 ± 0.035 kg/m3 and 997.948 ± 0.035 kg/m3
298.15 K, x1 = 0.002836	-0.0106 ± 0.00086 kJ/mol	998.397 ± 0.037 kg/m3
298.15 K, x1 = 0.002837	-0.0106 ± 0.00086 kJ/mol	998.399 ± 0.037 kg/m3
298.15 K, x1 = 0.003778	-0.0139 ± 0.00089 kJ/mol	998.844 ± 0.038 kg/m3
298.15 K, x1 = 0.003779	-0.0138 ± 0.00089 kJ/mol	998.843 ± 0.038 kg/m3
298.15 K, x1 = 0.004718	-0.017 ± 0.00092 kJ/mol	999.282 ± 0.04 kg/m3
298.15 K, x1 = 0.004719	-0.017 ± 0.00092 kJ/mol	999.28 ± 0.04 kg/m3
298.15 K, x1 = 0.005658	-0.02 kJ/mol and -0.0201 kJ/mol	999.717 ± 0.035 kg/m3 and 999.723 ± 0.035 kg/m3
308.15 K, x1 = 0.000947	-0.0024 ± 0.00079 kJ/mol	994.435 ± 0.036 kg/m3
308.15 K, x1 = 0.001892	-0.00471 ± 0.00081 kJ/mol	994.839 ± 0.037 kg/m3
308.15 K, x1 = 0.001893	-0.00471 ± 0.00081 kJ/mol	994.839 ± 0.037 kg/m3
308.15 K, x1 = 0.002835	-0.0069 ± 0.00083 kJ/mol	995.239 ± 0.038 kg/m3
308.15 K, x1 = 0.002836	-0.0069 ± 0.00083 kJ/mol	995.239 ± 0.038 kg/m3
308.15 K, x1 = 0.003777	-0.00901 ± 0.00085 kJ/mol	995.637 ± 0.039 kg/m3
308.15 K, x1 = 0.003778	-0.00899 ± 0.00085 kJ/mol	995.634 ± 0.039 kg/m3
308.15 K, x1 = 0.004716	-0.011 ± 0.00087 kJ/mol	996.023 ± 0.04 kg/m3
308.15 K, x1 = 0.004718	-0.0109 ± 0.00086 kJ/mol	996.023 ± 0.04 kg/m3
308.15 K, x1 = 0.005656	-0.0128 kJ/mol and -0.0129 kJ/mol	996.412 ± 0.036 kg/m3 and 996.415 ± 0.036 kg/m3
318.15 K, x1 = 0.000946	-0.00115 ± 0.00078 kJ/mol	990.573 ± 0.038 kg/m3
318.15 K, x1 = 0.000947	-0.00115 ± 0.00078 kJ/mol	990.572 ± 0.038 kg/m3
318.15 K, x1 = 0.001891	-0.0022 ± 0.00079 kJ/mol	990.933 ± 0.038 kg/m3
318.15 K, x1 = 0.001892	-0.0022 ± 0.00079 kJ/mol	990.933 ± 0.038 kg/m3
318.15 K, x1 = 0.002835	-0.00317 ± 0.0008 kJ/mol	991.289 ± 0.039 kg/m3
318.15 K, x1 = 0.003776	-0.00406 ± 0.00081 kJ/mol	991.639 ± 0.04 kg/m3
318.15 K, x1 = 0.003777	-0.00404 ± 0.00081 kJ/mol	991.641 ± 0.04 kg/m3
318.15 K, x1 = 0.004716	-0.00483 kJ/mol and -0.00478 kJ/mol	991.985 ± 0.041 kg/m3 and 991.983 ± 0.041 kg/m3
318.15 K, x1 = 0.005655	-0.00547 kJ/mol and -0.00554 kJ/mol	992.329 ± 0.042 kg/m3 and 992.332 ± 0.042 kg/m3

CCC1CCC(=O)O1 (stereo unspecified) [2(3H)-furanone, 5-ethyldihydro-] + O
Conditions	excess molar enthalpy, [2]	mass density, [1]
288.15 K, x1 = 0.000808	-0.00462 kJ/mol and -0.00461 kJ/mol	999.463 ± 0.034 kg/m3 and 999.462 ± 0.034 kg/m3
288.15 K, x1 = 0.001615	-0.00906 ± 0.00085 kJ/mol	999.823 ± 0.034 kg/m3
288.15 K, x1 = 0.001616	-0.00907 ± 0.00085 kJ/mol	999.824 ± 0.034 kg/m3
288.15 K, x1 = 0.002421	-0.0135 ± 0.00089 kJ/mol	1000.19 ± 0.035 kg/m3
288.15 K, x1 = 0.002422	-0.0135 ± 0.00089 kJ/mol	1000.19 ± 0.035 kg/m3
288.15 K, x1 = 0.003226	-0.0175 kJ/mol	1000.55 ± 0.036 kg/m3 and 1000.54 ± 0.036 kg/m3
288.15 K, x1 = 0.004029	-0.0216 kJ/mol and -0.0215 kJ/mol	1000.9 ± 0.038 kg/m3
288.15 K, x1 = 0.004831	-0.0254 ± 0.001 kJ/mol	1001.26 ± 0.04 kg/m3
288.15 K, x1 = 0.004832	-0.0254 ± 0.001 kJ/mol	1001.26 ± 0.04 kg/m3
298.15 K, x1 = 0.000808	-0.00312 kJ/mol and -0.00311 kJ/mol	997.357 ± 0.035 kg/m3 and 997.355 ± 0.035 kg/m3
298.15 K, x1 = 0.001615	-0.00612 ± 0.00082 kJ/mol	997.666 ± 0.035 kg/m3
298.15 K, x1 = 0.002421	-0.00898 ± 0.00085 kJ/mol	997.974 ± 0.035 kg/m3
298.15 K, x1 = 0.002422	-0.00898 ± 0.00085 kJ/mol	997.975 ± 0.035 kg/m3
298.15 K, x1 = 0.003226	-0.0116 kJ/mol	998.276 ± 0.036 kg/m3
298.15 K, x1 = 0.004029	-0.0142 kJ/mol	998.58 ± 0.037 kg/m3
298.15 K, x1 = 0.004831	-0.0167 ± 0.00092 kJ/mol	998.888 ± 0.034 kg/m3
298.15 K, x1 = 0.004832	-0.0168 ± 0.00092 kJ/mol	998.888 ± 0.034 kg/m3
308.15 K, x1 = 0.000809	-0.00165 ± 0.00079 kJ/mol	994.296 ± 0.036 kg/m3
308.15 K, x1 = 0.001616	-0.00317 ± 0.0008 kJ/mol	994.558 ± 0.036 kg/m3
308.15 K, x1 = 0.001617	-0.00319 ± 0.0008 kJ/mol	994.559 ± 0.036 kg/m3
308.15 K, x1 = 0.002422	-0.00458 ± 0.00081 kJ/mol	994.819 ± 0.037 kg/m3
308.15 K, x1 = 0.002423	-0.00459 ± 0.00081 kJ/mol	994.819 ± 0.037 kg/m3
308.15 K, x1 = 0.003227	-0.00588 ± 0.00082 kJ/mol	995.082 ± 0.037 kg/m3
308.15 K, x1 = 0.003228	-0.00586 ± 0.00082 kJ/mol	995.075 ± 0.037 kg/m3
308.15 K, x1 = 0.004031	-0.00706 ± 0.00083 kJ/mol	995.334 ± 0.038 kg/m3
308.15 K, x1 = 0.004032	-0.00708 ± 0.00083 kJ/mol	995.334 ± 0.038 kg/m3
308.15 K, x1 = 0.004834	-0.00808 ± 0.00084 kJ/mol	995.586 ± 0.036 kg/m3
308.15 K, x1 = 0.004835	-0.00822 ± 0.00084 kJ/mol	995.586 ± 0.036 kg/m3
318.15 K, x1 = 0.000808	-0.000206 ± 0.00078 kJ/mol	990.434 ± 0.038 kg/m3
318.15 K, x1 = 0.001615	-0.000296 ± 0.00078 kJ/mol	990.653 ± 0.038 kg/m3
318.15 K, x1 = 0.001616	-0.000298 ± 0.00078 kJ/mol	990.654 ± 0.038 kg/m3
318.15 K, x1 = 0.002421	-0.000289 ± 0.00078 kJ/mol	990.873 ± 0.038 kg/m3
318.15 K, x1 = 0.002422	-0.000284 ± 0.00078 kJ/mol	990.873 ± 0.038 kg/m3
318.15 K, x1 = 0.003226	-0.000169 ± 0.00078 kJ/mol	991.088 ± 0.038 kg/m3
318.15 K, x1 = 0.003227	-0.000179 ± 0.00078 kJ/mol	991.089 ± 0.038 kg/m3
318.15 K, x1 = 0.004029	3.4e-05 kJ/mol	991.301 ± 0.039 kg/m3
318.15 K, x1 = 0.00403	6.3e-05 kJ/mol	991.301 ± 0.039 kg/m3
318.15 K, x1 = 0.004832	0.00036 ± 0.00078 kJ/mol	991.512 ± 0.039 kg/m3
318.15 K, x1 = 0.004833	0.000377 ± 0.00078 kJ/mol	991.512 ± 0.039 kg/m3
